Results taken from patent US8945639B2, “Treatment of inflammatory bowel disease” (Provexis (IBD) Limited, priority 2003, dated 2015).

B1: fetuin: fetuin, glycoconjugate tested at 50 μg/ml (protein, UniProt P12763 19-359, looked up)
Alpha-2-HS-glycoprotein: IPLDPVAGYKEPACDDPDTEQAALAAVDYINKHLPRGYKHTLNQIDSVKVWPRRPTGEVYDIEIDTLETTCHVLDPTPLANCSVRQQTQHAVEGDCDIHVLKQDGQFSVLFTKCDSSPDSAEDVRKLCPDCPLLAPLNDSRVVHAVEVALATFNAESNGSYLQLVEISRAQFVPLPVSVSVEFAVAATDCIAKEVVDPTKCNLLAEKQYGFCKGSVIQKALGGEDVRVTCTLFQTQPVIPQPQPDGAEAEAPSAVPDAAGPTPSAAGPPVASVVVGPSVVAVPLPLHRAHYDLRHTFSGVASVESSSGEAFHVGKTPIVGQPSIPGGPVRLCPGRIRYFKI
B2: asialofetuin: asialofetuin, glycoconjugate tested at 50 μg/ml (protein, UniProt P12763 19-359, looked up)
Alpha-2-HS-glycoprotein: B1 Alpha-2-HS-glycoprotein
modifications: desialylated
notes: asialofetuin, glycoconjugate tested at 50 μg/ml

The molecules below were run on agglutinating mucosally-associated E. coli (haemagglutination of human red blood cells) (assay: Haemagglutination assays with different oligosaccharides/fibres (Example 1)). Details: agglutinating E. coli from IBD subjects, 'in all cases', mannose, fucose, galactose 0.4M, fetuin, asialofetuin 50 μg/ml.
Assay type: cell-based
Experimental: Blood was taken from a healthy human volunteer and placed into a heparinised container. The blood was washed three times in PBS by centrifugation at 1000 rpm for 5 minutes and by resuspending the pellet in fresh PBS. After the third wash, the pellet was resuspended in PBS so as to give a 1% red blood cell solution. Bacteria identified as E. coli, and 5 strains of CD-ileal associated E. coli were grown so as to obtain maximum fimbrial expression (see above). Bacteria were suspended in saline to give an OD equal to MacFarland standard 5. Doubling dilutions of bacterial suspension were performed in 96 well U-bottomed haemagglutination plates (Dynex technologies) to a final volume of 100 μl per well. 50 μl of 1% rbcs was added to each well. The plate was tapped gently to mix the contents of the wells and was left at room temperature for approximately 2 hrs.
Further characterisation of bacterial haemagglutination was carried out using a panel of oligosaccharides/fibers. The structures tested were: mannose (0.4M), fucose (0.4M), galactose (0.4M), fetuin (50 μg/ml), asialofetuin (50 μg/ml), bovine submaxillary mucin (BSM), hydrolysed BSM, ovine submaxilliary mucin (OSM), lactose, lactulose, siayl Tn, GalGalNAc, N-Glycolyneuraminic acid, N-acetylneuraminic acid, 3′-n-acetylneuraminyl-lactose, 6′-n-acetylneuraminyl-lactose, melibiose, plantain, stachyose, milk derived galacto-oligosaccharide, raffinose, pectin, polygalacturonic acid, and paralacto-n-hexaose.
Soluble fiber (prepared according to 1.1.12.2) and other carbohydrates were tested for their ability to modulate agglutination, attachment and invasion of cells from subjects with IBD.

Molecule	inhibition of agglutination
OC[C@H]1O[C@@H](O[C@@H]2[C@@H](CO)OC(O)(CO)[C@H]2O)[C@H](O)[C@@H](O)[C@H]1O (mixture of isomers) [lactulose]	non-inhibitory
CC(=O)N[C@H]1[C@H]([C@H](O)[C@H](O)CO)O[C@@](O[C@H]2[C@@H](O)[C@@H](CO)O[C@@H](O[C@H]3[C@H](O)[C@@H](O)C(O)O[C@@H]3CO)[C@@H]2O)(C(=O)O)C[C@@H]1O (stereo partly shown) [3′-n-acetylneuraminyl-lactose]	non-inhibitory
CC(=O)NC1C(O)CC(OCC2OC(OC3C(CO)OC(O)C(O)C3O)C(O)C(O)C2O)(C(=O)O)OC1C(O)C(O)CO (stereo not shown) [6′-n-acetylneuraminyl-lactose]	non-inhibitory
CC(=O)N[C@H]1C(O)O[C@H](CO)[C@H](O)[C@@H]1O[C@@H]1O[C@H](CO)[C@H](O)[C@H](O)[C@H]1O (stereo partly shown) [Galβ1-3GalNAc]	non-inhibitory
CC(=O)N[C@H]1[C@H]([C@H](O)[C@H](O)CO)OC(O)(C(=O)O)C[C@@H]1O (stereo partly shown) [N-acetylneuraminic acid]	non-inhibitory
O=C(CO)N[C@H]1[C@H]([C@H](O)[C@H](O)CO)OC(O)(C(=O)O)C[C@@H]1O (stereo partly shown) [N-glycolyneuraminic acid]	non-inhibitory
C[C@H](O)[C@@H](O)[C@@H](O)[C@H](O)C=O [fucose]	non-inhibitory
O=C[C@H](O)[C@@H](O)[C@@H](O)[C@H](O)CO [galactose]	non-inhibitory
OC[C@H]1O[C@@H](O[C@H]2[C@H](O)[C@@H](O)C(O)O[C@@H]2CO)[C@H](O)[C@@H](O)[C@H]1O (stereo partly shown) [lactose]	non-inhibitory
OC[C@H]1O[C@H](OCC2O[C@@H](O)[C@H](O)[C@@H](O)[C@@H]2O)[C@H](O)[C@@H](O)[C@H]1O (stereo partly shown) [melibiose]	non-inhibitory
OC[C@H]1O[C@H](OC[C@H]2O[C@H](O[C@]3(CO)O[C@H](CO)[C@@H](O)[C@@H]3O)[C@H](O)[C@@H](O)[C@@H]2O)[C@H](O)[C@@H](O)[C@H]1O [raffinose]	non-inhibitory
OC[C@H]1O[C@H](OC[C@H]2O[C@H](OC[C@H]3O[C@H](O[C@]4(CO)O[C@H](CO)[C@@H](O)[C@@H]4O)[C@H](O)[C@@H](O)[C@@H]3O)[C@H](O)[C@@H](O)[C@H]2O)[C@H](O)[C@@H](O)[C@H]1O [stachyose]	non-inhibitory
bovine submaxillary mucin	inhibited
paralacto-n-hexaose	non-inhibitory
pectin	non-inhibitory
polygalacturonic acid	non-inhibitory
siaylosyl-Tn	non-inhibitory
B1	non-inhibitory
B2	non-inhibitory
